Results: ChEMBL document CHEMBL1141774, “Benzopyran, biphenyl, and tetraoxygenated xanthone derivatives from the twigs of Garcinia nigrolineata” (2005)
Values after ≈ are worked out from the molar mass of the structure shown.

System: Staphylococcus aureus
Assay: Antibacterial activity against methicillin-resistant Staphylococcus aureus
Type: functional

Q: How did the MIC turn out when `CC(C)=CCc1c(O)cc2oc3c(O)c4c(cc3c(=O)c2c1O)C=CC(C)(C)O4` [LASTIXANTHONE D] was run?
A: 2 µg/mL (≈ 5.07 µM)

Q: For `CC1(C)C=Cc2c(cc(O)c3c(=O)c4cc(O)ccc4oc23)O1` [NIGROLINEAXANTHONE F], which MIC is on record?
A: 2 µg/mL (≈ 6.45 µM)

Q: For `CC(C)=CCc1c(O)cc2oc3c(O)ccc(CCC(C)(C)O)c3c(=O)c2c1O` [NIGROLINEAXANTHONE N], which MIC is on record?
A: 4 µg/mL (≈ 10 µM)
